What all share (test): relative viability (nuclei count vs DMSO), 5 days (fraction); higher = more cells survive
Compound in assay [1]: CC1=NN=C(O1)C2=NN=C(C=C2)N3CCC(CC3)OC4=C(C=CC(=C4)F)Cl
A digest of the protocol:
(§1)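 Viability was read as treated-well nuclei divided by vehicle-well nuclei, using the median across plates. Lung cancer cell lines in 1536-well plates were kept overnight at 37 °C, pinned with five √10-spaced library-drug doses, and after 5 days were Hoechst-stained, imaged at 4× and counted in MetaXpress. Plates passed only with control CV below 25% and at least one doubling.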

Compound in another assay: CC(C)C[C@@H](C(=O)N[C@H](C(=O)OC1CCCC1)c1ccccc1)[C@H](O)C(=O)NO [Tosedostat]
A digest of the protocol:
as §1

Compound in the assay “Tosedostat + Palbociclib”: CC(C)C[C@@H](C(=O)N[C@H](C(=O)OC1CCCC1)c1ccccc1)[C@H](O)C(=O)NO [Tosedostat] + CC(=O)c1c(C)c2cnc(Nc3ccc(N4CCNCC4)cn3)nc2n(C2CCCC2)c1=O [Palbociclib] (partner 0.5 µM)
A digest of the protocol: (§2)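 Relative viability divides the nuclei count in treated wells by that in vehicle wells. Lung cancer cell lines were seeded in 1536-well plates, dosed by pin tool the next day, and fixed and stained after 5 days in one step with final 0.05% Triton X-100, 1% formaldehyde and 1 ug/ml Hoechst. Dosing was a single drug or a fixed anchor-drug dose plus five library-drug doses (not always all listed) in √10 steps, and values are medians of duplicate plates imaged at 4×.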

Compound in the assay “Tosedostat + Tozasertib”: CC(C)C[C@@H](C(=O)N[C@H](C(=O)OC1CCCC1)c1ccccc1)[C@H](O)C(=O)NO [Tosedostat] + Cc1cc(Nc2cc(N3CCN(C)CC3)nc(Sc3ccc(NC(=O)C4CC4)cc3)n2)n[nH]1 [Tozasertib] (partner 0.1 µM)
A digest of the protocol: as §2

This note sets out measurements from the supplement of paper PMC10307832.

On to UMC-11, for which the relative viability in assay [1] (0.253 µM) came to 0.634; in assay [1] (0.8 µM), 0.641; in assay [1] (2.53 µM) it was 0.76; in assay [1] (8 µM), 0.594; with Tosedostat (0.02 µM), 1.1; with Tosedostat (0.06325 µM) it was 0.994. Besides, the relative viability worked out at 1.03 with Tosedostat (0.2 µM); 1.04 with Tosedostat (0.6325 µM); 1.05 with Tosedostat (2 µM); 0.339 with Tosedostat + Palbociclib (first compound 0.02 µM); 0.341 with Tosedostat + Palbociclib (first compound 0.06325 µM); 0.299 in the assay with Tosedostat + Palbociclib (first compound 0.2 µM). Also, the relative viability with Tosedostat + Palbociclib (first compound 0.6325 µM) was determined as 0.362; in the assay with Tosedostat + Palbociclib (first compound 2 µM), 0.338; in the assay with Tosedostat + Tozasertib (first compound 0.02 µM), 0.214; in the assay with Tosedostat + Tozasertib (first compound 0.06325 µM) it was 0.195; with Tosedostat + Tozasertib (first compound 0.2 µM) it was 0.206; with Tosedostat + Tozasertib (first compound 0.6325 µM), 0.197. Moreover, the relative viability with Tosedostat + Tozasertib (first compound 2 µM) came out at 0.194.
